In ChEMBL document CHEMBL1697781, “Assessment of the health effects of chemicals in humans: II. Construction of an adverse effects database for QSAR modeling” (Curr Drug Discov Technol, 2004):

Legend:
Conditions in all cases: human; call rule not given here
Hepatotoxicity [1] = assay: FDA HLAED, serum glutamic pyruvic transaminase (SGPT) increase
Hepatotoxicity [2] = assay: FDA HLAED, gamma-glutamyl transferase (GGT) increase
Hepatotoxicity [3] = assay: FDA HLAED, lactate dehydrogenase (LDH) increase
Hepatotoxicity [4] = assay: FDA HLAED, alkaline phosphatase increase
Hepatotoxicity [5] = assay: FDA HLAED, liver enzyme composite activity
Hepatotoxicity [6] = assay: FDA HLAED, serum glutamic oxaloacetic transaminase (SGOT) increase
Throughout, for GGT Increase - Index Value: reference of the scale not given here.
Throughout, for LDH Increase - Index Value: reference of the scale not given here.

| Compound | SGPT Increase - Activity Score (Hepatotoxicity [1]) | SGPT Increase - Index Value (Hepatotoxicity [1]) | SGPT Increase - Number of Reports (Hepatotoxicity [1]) | GGT Increase - Activity Score (Hepatotoxicity [2]) | GGT Increase - Index Value (Hepatotoxicity [2]) | GGT Increase - Number of Reports (Hepatotoxicity [2]) | LDH Increase - Activity Score (Hepatotoxicity [3]) | LDH Increase - Index Value (Hepatotoxicity [3]) | LDH Increase - Number of Reports (Hepatotoxicity [3]) | Alkaline Phosphatase Increase - Activity Score (Hepatotoxicity [4]) | Alkaline Phosphatase Increase - Index Value (Hepatotoxicity [4]) | Alkaline Phosphatase Increase - Number of Reports (Hepatotoxicity [4]) | SGOT Increase - Activity Score (Hepatotoxicity [6]) | SGOT Increase - Index Value (Hepatotoxicity [6]) | SGOT Increase - Number of Reports (Hepatotoxicity [6]) | Composite Activity - Active (Hepatotoxicity [5]) | Composite Activity - Marginal (Hepatotoxicity [5]) | Composite Activity - Score (Hepatotoxicity [5]) | other results |
| --- | --- | --- | --- | --- | --- | --- | --- | --- | --- | --- | --- | --- | --- | --- | --- | --- | --- | --- | --- |
| CCCCc1oc2ccccc2c1C(=O)c1cc(I)c(OCCN(CC)CC)c(I)c1 [AMIODARONE] | Inactive | 0 | < 4 | Inactive | 0 | < 4 | Inactive | 0 | < 4 | Inactive | 0 | < 4 | Inactive | 0 | < 4 |  |  |  | Composite Activity - Active (Hepatotoxicity [5]; Liver): 0; Composite Activity - Marginal (Hepatotoxicity [5]; Liver): 0; Composite Activity - Score (Hepatotoxicity [5]; Liver): Inactive |
| CC(C)c1ccc2oc3nc(N)c(C(=O)O)cc3c(=O)c2c1 [AMLEXANOX] | Inactive | 0 | < 4 | Inactive | 0 | < 4 | Inactive | 0 | < 4 | Inactive | 0 | < 4 | Inactive | 0 | < 4 | 0 | 0 | Inactive |  |
| CCOC(=O)C1=C(COCCN)NC(C)=C(C(=O)OC)C1c1ccccc1Cl (stereo not drawn) [AMLODIPINE] | Inactive | 1.2 | >= 4 | Inactive | 0.8 | >= 4 | Inactive | 0.7 | >= 4 | Inactive | 1 | >= 4 | Inactive | 1.3 | >= 4 | 0 | 0 | Inactive |  |
| Clc1ccc2c(c1)C(N1CCNCC1)=Nc1ccccc1O2 [AMOXAPINE] | Inactive | 0.7 | < 4 | Inactive | 0 | < 4 | Inactive | 0.7 | < 4 | Inactive | 0.7 | < 4 | Inactive | 1 | < 4 | 0 | 0 | Inactive |  |
| CC1(C)S[C@@H]2[C@H](NC(=O)[C@H](N)c3ccc(O)cc3)C(=O)N2[C@H]1C(=O)O [AMOXICILLIN] | Inactive | 0 | < 4 | Inactive | 0 | < 4 | Inactive | 0 | < 4 | Inactive | 0 | < 4 | Inactive | 0.1 | < 4 | 0 | 0 | Inactive |  |
| CC(C)(C#N)c1cc(Cn2cncn2)cc(C(C)(C)C#N)c1 [ANASTROZOLE] | Active | 12.8 | >= 4 | Inactive | 0 | < 4 | Inactive | 6.4 | < 4 | Inactive | 6.4 | < 4 | Active | 16.1 | >= 4 | 2 | 0 | Active |  |
